Positions of bridges follow the written chain, without caps; N, C: chain ends. Non-standard residues stand in square brackets, D forms with d. Residues, ends and D or L forms follow the SMILES beside them. S5 = C=CCCC[C@](C)(N)C(=O)O
Key:
[1] = target: α-Chymotrypsin (Bos taurus, UniProt P00766); assay: Proteolytic stability in α-chymotrypsin solution; type: in vitro ADME
Protocol: (§1) The peptides were dissolved in H2O to a final concentration at 2 mM, respectively. α-Chymotrypsin was dissolved in PBS (0.5 ng/μL, containing 2 mM CaCl2, pH 7.4). Then, the peptide solutions (50 μL) were incubated with α-chymotrypsin solution (950 μL) at 37 ℃. 100 μL of digestion mixture was taken at the different time and then quenched with 20 μL of hydrochloric acid (1 M). The percent residual peptide was monitored by HPLC at 214 nm. Each experiment was performed in triplicate.

[2] = Proteolytic stability in α-chymotrypsin solution; type: in vitro ADME; details: α-chymotrypsin solution, pH 7.4; after 1 h exposure to α-chymotrypsin; read-out: peptide remaining intact
Protocol: as §1

[3] = tested on: red blood cells (RBC); assay: Hemolysis assay (hemoglobin release from erythrocytes); type: cell-based, mice
Protocol: The hemolytic activities of the peptides and peptide-polymer conjugates were evaluated by determining hemoglobin release from suspensions of mice blood. Fresh erythrocytes were obtained from the whole blood by centrifuging at 4 ℃ 1000 g for 30 min and washing with PBS 2 times. Then erythrocytes were diluted with PBS at the volume ration of 1:10. The 96-well plate was added to 100 μL erythrocyte suspension per well and incubated with peptides and conjugates solution with different concentrations for 1 h at 37 ℃, following centrifuged at 1000 rpm for 10 min. The supernatants were obtained and monitored by measuring absorbance at 570 nm (BioTek Cytation 5, USA) as previously described. 0.1% (v/v) Triton X-100 was used as a positive control and PBS was used as a negative control.

Q: What does the source list for `CC[C@H](C)[C@H](NC(C)=O)C(=O)N[C@@H](CC(N)=O)C(=O)N[C@@H](CC(C)C)C(=O)N[C@@H](CCCCN)C(=O)N[C@@H](C)C(=O)N[C@@H](CC(C)C)C(=O)N[C@@H](C)C(=O)N[C@@H](C)C(=O)N[C@@]1(C)CCCC=CCCC[C@@](C)(C(=O)N[C@@H](CC(C)C)C(N)=O)NC(=O)[C@H](CCCCN)NC(=O)[C@H](CCCCN)NC(=O)[C@H](C)NC1=O` [MP9] (Ac-INLKALAA[S5]AKK[S5]L-NH2; staple 9-13)?
A: half-life ([1]; 0.5 ng/μL α-chymotrypsin, pH 7.4, 37 ℃, read-out: T1/2 in α-chymotrypsin solution (converted)): 5.27 h; fold increase in half-life (T1/2) versus MP ([1]; α-chymotrypsin): 12.55 fold; remaining at 1 h, 0.1 mM [2]: > 87%; RBC hemolytic activity (in words) [3]: lowest level of RBC hemolysis
